From article PMC9917184, “Synthesis and Biological Evaluation of Potential Oncoimmunomodulator Agents” (International Journal of Molecular Sciences, 2023) come the findings set out here.

The term inhibition denotes the percentage by which the read-out fell short of the control.

Each structure is given as a SMILES string. Where two headings read alike, the source gives them in different places.

For experiment [1], the system named is membrane VEGFR-2. Kind of experiment: Membrane VEGFR-2 relative quantification by flow cytometry in cancer cells co-cultured with Jurkat T cells. The experiment is classed as cell-based, human. As to conditions: 100 μM, 24 h, relative to non-treated co-cultures. As for the experimental part: (§1) We determined by flow cytometry the effect of these compounds on the expression of membrane PD-L1 in cancer cells when they were co-cultured with immune cells. Thus, interferon γ-stimulated cancer cells were treated for 24 h with the compounds at 100 μM in presence of Jurkat T cells. Then, cells were fixed and treated with anti-PD-L1 conjugated to AlexaFluor®647. We took advantage of the versatility of flow cytometry to simultaneously measure the expression of membrane VEGFR-2 by using anti-VEGFR-2 conjugated to fluorescein.
(§2) To study the effect of the compounds on every biological target in co-cultured cancer cell lines, the compounds were incubated for 24h as described before.
(§3) To detect membrane PD-L1 and VEGFR-2, after the cell treatments, they were collected, fixed with 4% in PBS paraformaldehyde, and stained with FITC Mouse monoclonal Anti-Human VEGFR-2 (ab184903) and Alexa Fluor® 647 Rabbit monoclonal Anti-PD-L1 (ab215251).
A general note: Flow cytometry measures light scatter and fluorescence of single cells or particles in a stream.

The target in experiment [2] is T1, membrane PD-L1 (Homo sapiens, UniProt Q9NZQ7).
T1 construct: Alexa Fluor® 647 Rabbit monoclonal Anti-PD-L1 (ab215251); endogenous in cells; host or cells: HT-29, MCF-7, A-549 (A17: MCF-7 only; A14: IFN-gamma-stimulated cancer cells co-cultured with Jurkat T cells)
Kind of experiment: Membrane PD-L1 relative quantification by flow cytometry in cancer cells co-cultured with Jurkat T cells. The experiment is classed as cell-based. The settings on record: Jurkat, 24 h; for remaining activity at 100 µM: relative to non-treated co-cultures, read-out: % PDL1 (membrane); for inhibition at 100 µM: HT-29 co-cultured with Jurkat T cells, read-out: membrane PD-L1 inhibition rate. As for the experimental part:
as §1, §2, §3

The subject of experiment [3] is Jurkat T cells. The experiment is described as follows: Jurkat T cell viability in co-culture with cancer cells (flow cytometry count). It is filed as cell-based. As to conditions: Homo sapiens, 24 h, read-out: percentage of living Jurkat cells relative to non-treated co-cultures. As for the experimental part: (§4) The effect of the synthesized compounds on tumor cell proliferation in the presence of PD-1-expressing Jurkat T cells was also studied. This assay was carried out, as in the previous experiments, in the HT29, MCF7, and A549 cell lines (see Table 4). Interferon γ-stimulated cancer cells were treated for 24 h with the compounds at 100 μM in presence of Jurkat T cells. Then, cells were counted using flow cytometry. The percentage of living cells relative to non-treated co-cultures (control) was established for both cancer and immune cells in every co-culture.
(§5) To study the effect of the compounds on the cell viability in co-culture with Jurkat T cells or THP-1 cells, 10^5 or 2 × 10^5 of the corresponding cancer cells line per well were seeded and incubated for 24 h, then the medium was changed by one cell culture medium supplemented with IFN-γ (10 ng/mL; human, Invitrogen®) and containing 5 × 10^5 or 10^5 Jurkat T cells or THP-1, respectively, per well and 100 µM of the corresponding compound or DMSO for the […] control. After 24 h/48 h of incubation, supernatants were collected to determine Jurkat T or THP-1 living cells, and on the other hand, corresponding cancer cells were collected with trypsin. Both types of suspension cells were fixed with 4% in PBS paraformaldehyde and counted by flow cytometry.

Experiment [4] has as its system HT-29. The experiment is described as follows: HT-29 cell viability in co-culture with Jurkat T cells (flow cytometry count). As to conditions: Homo sapiens, HT-29/Jurkat T co-culture, IFN-γ stimulated, 24 h, read-out: percentage of living HT-29 cells relative to non-treated co-cultures. It is filed as cell-based, human. As for the experimental part:
as §4, §5

Experiment [5] concerns the target PD-L1 (Homo sapiens, UniProt Q9NZQ7). The experiment is described as follows: Total PD-L1 relative quantification by flow cytometry in cancer cell lines. It is filed as cell-based. As to conditions: 24 h, total PD-L1 relative to negative control (DMSO). Details: Alexa Fluor® 647 Rabbit monoclonal Anti-PD-L1 (ab215251); endogenous in cells; host or cells: HT-29. On the procedure: (§6) The effect of these triazole derivates on c-Myc and PD-L1 was measured in three different cancer cell lines (HT-29, MCF-7, A-549) by flow cytometry. Thus, cells were incubated for 24 h with the corresponding compound at a concentration of 100 μM. Dimethyl sulfoxide (DMSO)-treated cells were used as the negative control, and a PD-L1 inhibitor, BMS-8 [29, 31], was used as a reference control. After permeabilization and fixation, cells were treated with anti-PD-L1 conjugated to AlexaFluor®647 and anti-c-Myc conjugated to fluorescein to determine the amount of both targets related to the negative control. Table 1 show the results in terms of the percentage of the detected target in relation to the negative control. This assay was carried out on cancer cell lines HT-29, MCF-7, and A-549.
(§7) To study the effect of the compounds on every biological target in cancer cell lines, the compounds were used at a 100 µM dose.
(§8) For the assay, 10^5 cells per well were incubated for 24 h with the corresponding dose of the tested compound in a total volume of 500 μL of their growth media.
(§9) To detect total PD-L1 and c-Myc, after the cell treatments, they were collected and fixed with 4% in PBS paraformaldehyde. After fixation, a treatment with 0,5% in PBS Triton™ X-100 was performed, and finally, cells were stained with FITC Mouse monoclonal Anti-c-Myc (ab223913) and Alexa Fluor® 647 Rabbit monoclonal Anti-PD-L1 (ab215251).

The subject of experiment [6] is c-Myc. The experiment is described as follows: Total c-Myc relative quantification by flow cytometry in cancer cell lines. As to conditions: 24 h. The experiment is classed as cell-based, human. As for the experimental part: as §6, §7, §8, §9
Experiment [7] concerns A-549. The experiment is described as follows: A-549 cell viability in co-culture with Jurkat T cells (flow cytometry count). It is filed as cell-based, human. As to conditions: 24 h; for viability at 100 µM: Homo sapiens, A549, A-549/Jurkat T co-culture, IFN-γ stimulated, read-out: percentage of living A-549 cells relative to non-treated co-cultures; for inhibition rate of A-549 cell viability: co-cultured with Jurkat T cells, 100 μM. On the procedure: as §4, §5

Experiment [8] relates to MCF-7. The experiment is described as follows: MCF-7 cell viability in co-culture with Jurkat T cells (flow cytometry count). The settings on record: 24 h; for viability at 100 µM: Homo sapiens, MCF7, MCF-7/Jurkat T co-culture, IFN-γ stimulated, read-out: percentage of living MCF-7 cells relative to non-treated co-cultures. It is filed as cell-based, human. As for the experimental part: as §4, §5

Where [9] appears, read: A549 co-cultured with Jurkat T cells.
Where [10] appears, read: HT29 co-cultured with Jurkat T cells.
Setting [11] is: MCF7 co-cultured with Jurkat T cells.
Setting [12] is: A-549, 100 µM, relative to negative control (DMSO).
Where [13] appears, read: HT-29, 100 µM, detected target relative to negative control (DMSO).
The mark [14] stands for this setting: MCF-7, 100 µM, relative to negative control (DMSO).

Sequence of PD-L1 (Q9NZQ7 19-290): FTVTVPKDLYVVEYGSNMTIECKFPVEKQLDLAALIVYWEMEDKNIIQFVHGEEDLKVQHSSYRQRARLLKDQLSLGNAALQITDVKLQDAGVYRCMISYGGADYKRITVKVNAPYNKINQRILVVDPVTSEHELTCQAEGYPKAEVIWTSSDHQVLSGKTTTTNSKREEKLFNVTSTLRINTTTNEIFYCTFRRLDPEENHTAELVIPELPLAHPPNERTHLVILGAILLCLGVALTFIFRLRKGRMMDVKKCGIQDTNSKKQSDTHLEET
T1 sequence (Q9NZQ7 19-290): as above

`COc1ccc(C(OCCc2ccc(CCn3cc(-c4ccccc4)nn3)cc2)(c2ccccc2)c2ccc(OC)cc2)cc1` [Compound 1, 1-(4-(2-(bis(4-methoxyphenyl)(phenyl)methoxy)ethyl)phenethyl)-4-phenyl-1H-1,2,3-triazole]: the “%VEGFR2 (membrane)” value is recorded as 79 ± 7% in experiment [1] (setting [9]), 85 ± 0% in experiment [1] (setting [10]) and 76 ± 1% in experiment [1] (setting [11]). For the same molecule, the remaining activity at 100 µM was determined as 96 ± 9% in experiment [2] (setting [9]); 143 ± 48% in experiment [2] (setting [10]); 109 ± 9% in experiment [2] (setting [11]); 63 ± 16% in experiment [5] (A549, A-549, 100 µM); 85 ± 3% in experiment [5] (HT-29, 100 µM); 90 ± 8% in experiment [5] (MCF7, MCF-7, 100 µM). The viability at 100 µM in experiment [3] (A-549/Jurkat T co-culture) was found to be 88 ± 18%; in experiment [3] (HT-29/Jurkat T co-culture), 108 ± 6%; in experiment [3] (MCF-7/Jurkat T co-culture) it was 86 ± 13%; in experiment [4] it was 81 ± 12%; in experiment [7], 127 ± 1%; in experiment [8], 56 ± 6%. Moreover, the “% c-Myc” value in experiment [6] (setting [12]) was 182 ± 27%; in experiment [6] (setting [13]), 135 ± 5%; in experiment [6] (setting [14]), 73 ± 1%.
Consider `COc1ccccc1-c1cn(CCc2ccc(CCO)cc2)nn1` [Compound 14, 2-(4-(2-(4-(2-methoxyphenyl)-1H-1,2,3-triazol-1-yl)ethyl)phenyl)ethan-1-ol], for which the results for the “%VEGFR2 (membrane)” value in experiment [1] (setting [9]), in experiment [1] (setting [10]) and in experiment [1] (setting [11]) were 106 ± 1%, 97 ± 6% and 91 ± 6%, respectively. Besides, the remaining activity at 100 µM in experiment [2] (setting [9]) stood at 85 ± 3%; in experiment [2] (setting [10]), 61 ± 3%; in experiment [2] (setting [11]) it was 80 ± 5%; in experiment [5] (A549, A-549, 100 µM), 54 ± 7%; in experiment [5] (HT-29, 100 µM), 138 ± 2%; in experiment [5] (MCF7, MCF-7, 100 µM) it was 71%. The inhibition at 100 µM in experiment [2] was 40 to 50%. For the same molecule, the viability at 100 µM in experiment [3] (A-549/Jurkat T co-culture) amounted to 109 ± 20%; in experiment [3] (HT-29/Jurkat T co-culture), 106 ± 9%; in experiment [3] (MCF-7/Jurkat T co-culture), 127 ± 6%; in experiment [4], 67 ± 10%; in experiment [7], 78 ± 9%; in experiment [8], 47 ± 1%. Moreover, the results for the “% c-Myc” value in experiment [6] (setting [12]), in experiment [6] (setting [13]) and in experiment [6] (setting [14]) were 85 ± 10%, 67 ± 4% and 71 ± 5%, respectively. For the same molecule, the “inhibition rate of A-549 cell viability” value in experiment [7] is listed as “around 30%”. In addition, the “inhibition rate of MCF-7 cell viability” value in experiment [8] (co-cultured with Jurkat T cells, 100 μM) is reported as “around 60%”.
Regarding `OCCc1ccc(CCn2cc(-c3ccccc3)nn2)cc1` [Compound 2, 2-(4-(2-(4-phenyl-1H-1,2,3-triazol-1-yl)ethyl)phenyl)ethan-1-ol], the “%VEGFR2 (membrane)” value came to 90 ± 10% in experiment [1] (setting [9]), 101 ± 11% in experiment [1] (setting [10]) and 86 ± 2% in experiment [1] (setting [11]). The remaining activity at 100 µM in experiment [2] (setting [9]) came out at 60 ± 6%; in experiment [2] (setting [10]), 124 ± 34%; in experiment [2] (setting [11]), 82 ± 6%; in experiment [5] (A549, A-549, 100 µM), 76 ± 2%; in experiment [5] (HT-29, 100 µM), 82 ± 6%; in experiment [5] (MCF7, MCF-7, 100 µM), 115 ± 7%. The viability at 100 µM came to 89 ± 17% in experiment [3] (A-549/Jurkat T co-culture); 107 ± 4% in experiment [3] (HT-29/Jurkat T co-culture); 87 ± 22% in experiment [3] (MCF-7/Jurkat T co-culture); 79 ± 20% in experiment [4]; 123 ± 25% in experiment [7]; 80 ± 6% in experiment [8]. The “% c-Myc” value in experiment [6] (setting [12]) amounted to 79 ± 10%; in experiment [6] (setting [13]), 115 ± 8%; in experiment [6] (setting [14]), 122 ± 13%.
Take `COc1ccc(-c2cn(CCc3ccc(CCOC(c4ccccc4)(c4ccc(OC)cc4)c4ccc(OC)cc4)cc3)nn2)cc1` [Compound 9, 1-(4-(2-(bis(4-methoxyphenyl)(phenyl)methoxy)ethyl)phenethyl)-4-(4-methoxyphenyl)-1H-1,2,3-triazole]: the “%VEGFR2 (membrane)” value in experiment [1] (setting [9]) is listed as 92 ± 3%; in experiment [1] (setting [10]) it was 76 ± 13%; in experiment [1] (setting [11]) it was 76 ± 10%. Further, the remaining activity at 100 µM stood at 82 ± 2% in experiment [2] (setting [9]); 63 ± 11% in experiment [2] (setting [10]); 40 ± 5% in experiment [2] (setting [11]); 92 ± 21% in experiment [5] (A549, A-549, 100 µM); 57 ± 8% in experiment [5] (HT-29, 100 µM); 89 ± 5% in experiment [5] (MCF7, MCF-7, 100 µM). Further, the inhibition at 100 µM in experiment [2] lay in the range of 40 to 50%. In addition, the viability at 100 µM in experiment [3] (A-549/Jurkat T co-culture) was found to be 462 ± 99%; in experiment [3] (HT-29/Jurkat T co-culture), 56 ± 18%; in experiment [3] (MCF-7/Jurkat T co-culture), 84 ± 17%; in experiment [4], 51 ± 17%; in experiment [7], 106 ± 1%; in experiment [8], 69 ± 9%. Moreover, in experiment [6] (A-549, 100 μM), the c-Myc inhibition rate turned out to be 40%. Further, the “% c-Myc” value came out at 61 ± 3% in experiment [6] (setting [12]), 71 ± 10% in experiment [6] (setting [13]) and 88 ± 4% in experiment [6] (setting [14]). Besides, the “inhibition rate of A-549 cell viability” value in experiment [7] is “no activity”.
